Laboratory results: PMC7914117, “Ginkgolic acid and anacardic acid are specific covalent inhibitors of SARS-CoV-2 cysteine proteases” (Cell & Bioscience, 2021)

Legend:
[1] = target: SARS-CoV-2 PL^pro (Severe acute respiratory syndrome coronavirus 2, UniProt P0DTD1); assay: SARS-CoV-2 PLpro fluorescence-based enzymatic inhibition assay (Z-RLRGG-AMC substrate); type: biochemical; details: for IC50: mean ± SD, triplicate, read-out: IC50 against PL^pro enzymatic activity; for inhibition at 20 µM: read-out: inhibition against PL^pro in high-throughput screen
[2] = target: SARS-CoV-2 3CL^pro (Severe acute respiratory syndrome coronavirus 2, UniProt P0DTD1); assay: SARS-CoV-2 3CLpro FRET enzymatic inhibition assay; type: biochemical; details: for IC50: 250 nM 3CLpro, 4 mM DTT, 30 min pre-incubation, 50 µM substrate, mean ± SD, triplicate, read-out: IC50 against 3CL^pro enzymatic activity; for IC50 shift upon addition of reducing reagent: 3CLpro assay in absence or presence of 4 mM DTT; for sensitivity of 3CLpro compared to PLpro: ratio of IC50 values, PLpro vs 3CLpro
Description: The SARS-CoV-2 3CL^pro was prokaryotic expressed and purified as previously described with slight modification. For enzymatic inhibition assay, the recombinant 3CL^pro (250 nM at a final concentration) was incubated with increasing concentrations of each compound in 90 µL reaction buffer (50 mM Tris–HCl, pH 7.3, 1 mM EDTA, 4mM DTT) for 30 min [6]. The reaction was initiated by adding 10 µL FRET-based peptidic substrate (Dabcyl-KTSAVLQ/SGFRKME-Edans) with a final concentration of 50 µM. The fluorescence signal was immediately measured every 20 s for 30 min using a Bio-Tek Synergy4 plate reader with filters for excitation at 336/20 nm and emission at 490/20 nm. The V0 of reactions were calculated to indicate the enzymatic activities. Three independent experiments were performed and IC50 curves were analyzed using four-parameter logistic regression in GraphPad Prism software.
For mechanism of action study, various concentrations of ginkgolic acid were mixed and incubated with increasing concentrations of 3CL^pro (100–1000 nM) in 90 µL reaction buffer for 30 min. Reactions were initiated by adding 10 µL substrate with a final concentration of 50 µM. At each concentration of ginkgolic acid, the V0s were plotted with the concentrations of 3CL^pro, and the data was fitted using linear regression analysis in GraphPad Prism software.

[3] = Cell-Titer Glo cytotoxicity assay; type: cell-based; details: African green monkey, Vero-E6 cells; for CC50 at 48 h: mean ± SD, triplicate; for viability at 48 h, 20 µM: at 20 µM
Description: (§1) To estimate the cytotoxicity of test compounds on VERO-E6 cells, Cell-Titer Glo® luminescent cell viability assay (Promega) was performed according to the manufacturer’s instruction. […] The half of the cytotoxic concentration (CC50) values were calculated from the percentages of cells whose viability was inhibited by test compounds at various concentrations.

[4] = system: Vero-E6 cells; assay: Cell-Titer Glo cytotoxicity assay; type: cell-based; details: 48 h, mean ± SD, triplicate
Description: as §1

[5] = 100 nM PLpro, 4 mM DTT, 30 min pre-incubation, 30 µM substrate
[6] = compounds at 20 µM, 100 nM PLpro, 30 min pre-incubation, 4 mM DTT, 30 µM substrate, RFU at 10 min

Compound | IC50 [1, 5] | inhibition at 20 µM [1, 6] | IC50 [2] | IC50 shift upon addition of reducing reagent [2] | sensitivity of 3CLpro compared to PLpro [2] | CC50 at 48 h [3] | viability at 48 h, 20 µM [3] | CC10 [4] | type of enzymatic inhibition of PL^pro ([1]; V0 vs enzyme concentration (25–150 nM) at different inhibitor concentrations) | type of enzymatic inhibition of 3CL^pro ([2]; V0 vs enzyme concentration (100–1000 nM) at different inhibitor concentrations) | inhibition against PL^pro in high-throughput screen [1, 6]
CCCCCCCCCCCCCCCc1cccc(O)c1C(=O)O [anacardic acid] | 17.1 ± 1.3 µM | > 50% | 2.07 ± 0.35 µM | no significant IC50 shift | about 10 times | 25.5 ± 0.69 µM | > 90% | 22.27 ± 0.26 µM |  |  | 
CCCCCC/C=C\CCCCCCCc1cccc(O)c1C(=O)O [ginkgolic acid] | 16.3 ± 0.64 µM | > 50% | 1.79 ± 0.58 µM | no significant IC50 shift | about 10 times | 27.9 ± 0.77 µM | > 90% | 21.38 ± 0.52 µM | irreversible inhibitor | irreversible inhibitor | 
C/C1=C2/[N-][C@H]([C@H](CC(N)=O)[C@@]2(C)CCC(=O)NC[C@@H](C)OP(=O)([O-])O[C@H]2[C@@H](O)[C@@H](n3cnc4cc(C)c(C)cc43)O[C@@H]2CO)[C@]2(C)N=C(/C(C)=C3N=C(/C=C4N=C1[C@@H](CCC(N)=O)C\4(C)C)[C@@H](CCC(N)=O)[C@]\3(C)CC(N)=O)[C@@H](CCC(N)=O)[C@]2(C)CC(N)=O.[CH3-].[Co+3] [methylcobalamin, reference compound] |  |  |  |  |  |  |  |  |  |  | more than 50%
